The values below come from ChEMBL document CHEMBL1150952, “Isolation, identification, and biological activity of isopersin, a new compound from avocado idioblast oil cells” (1998).

The test system of test [1] is Spodoptera exigua. The test can be described thus: Insecticidal activity against early instar Spodoptera exigua assessed as mortality at 500 ug/g after 7 days by artificial diet bioassay relative to control. The format is functional.
Test [2] has as its system Spodoptera exigua. As to the kind of experiment: Insecticidal activity against early instar Spodoptera exigua assessed as larval weight at 500 ug/g after 7 days by artificial diet bioassay. The class given is functional.

On to `CCCCC/C=C\C/C=C\CCCCCCCC(=O)CC(CO)OC(C)=O` (stereo not drawn) [ISOPERSIN], for which the Activity in the test on Spodoptera exigua [1] is listed as 12%; in the test with Spodoptera exigua [2], 26.45 mg. Take `CCCCC/C=C\C/C=C\CCCCCCCC(=O)C[C@@H](O)COC(C)=O`: in the test on Spodoptera exigua [1], the Activity worked out at 80%.
